Reference: US11759461B2, “Small molecule inhibitors of cancer stem cells and mesenchymal cancer types” (The Scripps Research Institute, priority 2017, dated 2023)

test system: FOXC2-expressing HMLER cells; test: Cell Titer Glo viability of FOXC2-HMLER cells (high throughput screen and 10-point response); format: cell-based; conditions: Homo sapiens; scored relative to parent compound 2; 72 hours; read-out: Activity Score, inhibition of FOXC2-expressing HMLER cells by Formula II compounds
Procedure: For high throughput screening, FOXC2-HMLER and HMLER cells were plated at 10^3 cells per well in white 384-well plates in 50 μL of MEGM medium (Lonza). Cells were allowed to attach for one hour before compound was transferred to each well as a DMSO solution using a 100 nL pintool head affixed to a PerkinElmer FX instrument. After 72-hour incubation, 30 μL of a Cell Titer Glo solution (diluted 1:6 in water, Promega) was dispensed into each well and luminance values were recorded using an Envision plate reader. […] All other miniaturized, selective viability experiments were performed as above using the indicated growth medium.
More specifically, in the high throughput screening assay above, each cell line was plated at 1,000 cells per well in 384-well plates, treated for 72 hours with 2 μM of test compound, and the viability of each line was determined in parallel by Cell Titer Glo (Promega) luminance measurements.

Structure (SMILES) | IC50 [µM]
COc1ccc2cc(CNc3ccccc3)c(=O)n(CC(=O)Nc3ccc4c(c3)OCCO4)c2c1 [Compound 2EG] | > 20
COc1cc2cc(CNc3ccccc3)c(=O)n(CC(=O)Nc3cccc(C)c3)c2cc1OC [Compound 2EH] | > 20
COc1ccc(NC(=O)Cn2c(=O)c(CNc3ccc(C)cc3)cc3ccc(OC)cc32)cc1 [Compound 2EI] | > 20
COc1ccc2cc(CNc3ccccc3)c(=O)n(CC(=O)Nc3ccc(F)c(F)c3)c2c1 [Compound 2EJ] | > 20
CCc1ccc(NCc2cc3ccc(OC)cc3n(CC(=O)Nc3ccc(C(C)C)cc3)c2=O)cc1 [Compound 2EK] | > 20
COc1ccc2cc(CNc3ccc(C)cc3)c(=O)n(CC(=O)Nc3cccc(C)c3)c2c1 [Compound 2EL] | > 20
COc1ccc(NCc2cc3cc(OC)c(OC)cc3n(CC(=O)Nc3ccccc3C)c2=O)cc1 [Compound 2EM] | > 20
COc1ccc2cc(CNc3ccccc3)c(=O)n(CC(=O)Nc3ccc(C)cc3C)c2c1 [Compound 2EN] | > 20
COc1ccc(NCc2cc3ccc(OC)cc3n(CC(=O)Nc3ccc(C)c(Cl)c3)c2=O)cc1 [Compound 2EO] | > 20
COc1cc2cc(CNc3ccccc3)c(=O)n(CC(=O)Nc3ccccc3)c2cc1OC [Compound 2EP] | > 20
O=C(Cn1c(=O)c(CNc2ccccc2)cc2cc3c(cc21)OCCO3)Nc1ccccc1 [Compound 2EQ] | > 20
COc1ccc2cc(CNc3ccc(C)cc3)c(=O)n(CC(=O)Nc3ccc(C(C)C)cc3)c2c1 [Compound 2ER] | > 20
COc1ccccc1NC(=O)Cn1c(=O)c(CNc2ccccc2)cc2cc(OC)c(OC)cc21 [Compound 2ES] | > 20
COc1ccc2cc(CNc3ccccc3)c(=O)n(CC(=O)Nc3ccc(C)cc3)c2c1 [Compound 2ET] | > 20
COc1cccc(NC(=O)Cn2c(=O)c(CNc3ccc(OC)c(OC)c3)cc3ccc(C)cc32)c1 [Compound 2EU] | > 20
COc1ccc(NCc2cc3ccc(OC)cc3n(CC(=O)Nc3cccc(Cl)c3)c2=O)cc1 [Compound 2EV] | > 20
COc1ccc2cc(CNc3ccccc3)c(=O)n(CC(=O)Nc3cc(F)ccc3F)c2c1 [Compound 2EW] | > 20
COc1ccc2cc(CNc3ccccc3)c(=O)n(CC(=O)Nc3cccc(C(C)=O)c3)c2c1 [Compound 2EX] | > 20
Cc1ccc(NCc2cc3cc4c(cc3n(CC(=O)Nc3ccc(C)cc3C)c2=O)OCCO4)cc1 [Compound 2EY] | > 20
COc1ccc2cc(CNc3ccccc3)c(=O)n(CC(=O)Nc3cccc(Cl)c3C)c2c1 [Compound 2EZ] | > 20
CCOc1ccc(NC(=O)Cn2c(=O)c(CNc3ccc(C)cc3)cc3ccc(OC)cc32)cc1 [Compound 2E] | 1 to 20
COc1ccc2cc(CNc3ccccc3)c(=O)n(CC(=O)Nc3cccc(SC)c3)c2c1 [Compound 2FA] | > 20
CCc1ccc(NC(=O)Cn2c(=O)c(CNc3ccc(C)cc3)cc3cc(OC)c(OC)cc32)cc1 [Compound 2FB] | > 20
COc1ccc2cc(CNc3ccc(C)cc3)c(=O)n(CC(=O)Nc3cc(Cl)ccc3C)c2c1 [Compound 2FC] | > 20
COc1ccc(NCc2cc3ccc(OC)cc3n(CC(=O)Nc3cc(Cl)ccc3C)c2=O)cc1 [Compound 2FD] | > 20

Structure (SMILES) | IC50 [µM]
COc1cc2cc(CNc3ccccc3)c(=O)n(CC(=O)Nc3ccc(C)c(C)c3)c2cc1OC [Compound 2FE] | > 20
COc1cc2cc(CNc3ccc(C)cc3)c(=O)n(CC(=O)Nc3ccccc3C)c2cc1OC [Compound 2FF] | > 20
O=C(Cn1c(=O)c(CNc2ccccc2)cc2cc3c(cc21)OCCO3)Nc1ccc2c(c1)OCCO2 [Compound 2FG] | > 20
COc1cc2cc(CNc3ccc(C)cc3)c(=O)n(CC(=O)Nc3ccc(Cl)cc3)c2cc1OC [Compound 2FH] | > 20
COc1ccc2cc(CNc3ccc(C)cc3)c(=O)n(CC(=O)Nc3ccc(C)c(F)c3)c2c1 [Compound 2FI] | > 20
CCc1ccccc1NC(=O)Cn1c(=O)c(CNc2ccc(C)cc2)cc2ccc(OC)cc21 [Compound 2FJ] | > 20
COc1ccc2cc(CNc3ccc(OC)c(OC)c3)c(=O)n(CC(=O)Nc3cccc(C)c3)c2c1 [Compound 2FK] | > 20
CCc1cccc(NC(=O)Cn2c(=O)c(CNc3ccc(C)cc3)cc3ccc(OC)cc32)c1 [Compound 2FL] | > 20
COc1cccc(NC(=O)Cn2c(=O)c(CNc3ccccc3)cc3ccc(C)cc32)c1 [Compound 2FM] | > 20
COc1ccc2cc(CNc3ccc(C)cc3)c(=O)n(CC(N)=O)c2c1 [Compound 2FN] | > 20
CCc1ccc(NCc2cc3ccc(OC)cc3n(CC(=O)Nc3cccc(F)c3)c2=O)cc1 [Compound 2FO] | > 20
COc1cc2cc(CNc3ccccc3)c(=O)n(CC(=O)Nc3ccc(Cl)cc3)c2cc1OC [Compound 2FP] | > 20
Cc1ccc(C)c(NC(=O)Cn2c(=O)c(CNc3ccccc3)cc3cc4c(cc32)OCCO4)c1 [Compound 2FQ] | > 20
CCc1ccc(NCc2cc3ccc(OC)cc3n(CC(=O)Nc3ccc4c(c3)OCCO4)c2=O)cc1 [Compound 2FR] | > 20
COc1cc2cc(CNc3ccccc3)c(=O)n(CC(=O)Nc3ccccc3Cl)c2cc1OC [Compound 2FS] | > 20
CCc1ccc(NCc2cc3ccc(OC)cc3n(CC(=O)Nc3cccc(OC)c3)c2=O)cc1 [Compound 2FT] | > 20
COc1cc2cc(CNc3ccc(C)cc3)c(=O)n(CC(=O)Nc3ccccc3)c2cc1OC [Compound 2FU] | > 20
COc1ccc2cc(CNc3ccc(C)cc3)c(=O)n(CC(=O)Nc3ccccc3)c2c1 [Compound 2FV] | > 20
Cc1ccc(NCc2cc3cc4c(cc3n(CC(=O)Nc3ccc(C)cc3)c2=O)OCCO4)cc1 [Compound 2FW] | > 20
COc1ccc(NCc2cc3ccc(OC)cc3n(CC(=O)Nc3ccc(C)c(C)c3)c2=O)cc1 [Compound 2FX] | > 20
COc1cc2cc(CNc3ccc(C)cc3)c(=O)n(CC(=O)Nc3ccc(C)cc3)c2cc1OC [Compound 2FY] | > 20
COc1ccc(CNC(=O)Cn2c(=O)c(CNc3ccc(C)cc3)cc3ccc(OC)cc32)cc1 [Compound 2FZ] | > 20
COc1ccc(NCc2cc3ccc(C)cc3n(CC(=O)Nc3ccc(C)cc3C)c2=O)cc1OC [Compound 2F] | 1 to 20
CCc1ccc(NCc2cc3cc4c(cc3n(CC(=O)Nc3cccc(OC)c3)c2=O)OCCO4)cc1 [Compound 2GA] | > 20
CCc1ccc(NCc2cc3ccc(OC)cc3n(CC(=O)Nc3ccc(Cl)cc3)c2=O)cc1 [Compound 2GB] | > 20

Structure (SMILES) | IC50 [µM]
COc1cccc(NC(=O)Cn2c(=O)c(CNc3ccc(C)cc3)cc3cc4c(cc32)OCCO4)c1 [Compound 2GC] | > 20
COc1ccc(NCc2cc3cc4c(cc3n(CC(=O)Nc3ccc(C)c(C)c3)c2=O)OCCO4)cc1 [Compound 2GD] | > 20
COc1ccc(NC(=O)Cn2c(=O)c(CNc3ccccc3)cc3ccc(C)cc32)cc1OC [Compound 2GE] | > 20
COc1ccc2cc(CNc3ccc(C)cc3)c(=O)n(CC(=O)Nc3cccc(C(C)=O)c3)c2c1 [Compound 2GF] | > 20
COc1cc2cc(CNc3ccccc3)c(=O)n(CC(=O)Nc3cc(C)cc(C)c3)c2cc1OC [Compound 2GG] | > 20
COc1ccc2cc(CNc3ccc(C)cc3)c(=O)n(CC(=O)Nc3cccc(SC)c3)c2c1 [Compound 2GH] | > 20
CCOc1ccc(NC(=O)Cn2c(=O)c(CNc3ccccc3)cc3cc(OC)c(OC)cc32)cc1 [Compound 2GI] | > 20
Cc1ccc(NC(=O)Cn2c(=O)c(CNc3ccccc3)cc3cc4c(cc32)OCCO4)cc1 [Compound 2GJ] | > 20
COc1ccc(NCc2cc3ccc(OC)cc3n(CC(=O)Nc3ccccc3OC)c2=O)cc1 [Compound 2GK] | > 20
CCc1ccc(NCc2cc3ccc(OC)cc3n(CC(=O)NCCc3ccccc3)c2=O)cc1 [Compound 2GL] | > 20
CCOC(=O)c1ccc(NC(=O)Cn2c(=O)c(CNc3ccc(C)cc3)cc3ccc(OC)cc32)cc1 [Compound 2GM] | > 20
Cc1ccccc1NC(=O)Cn1c(=O)c(CNc2ccccc2)cc2cc3c(cc21)OCCO3 [Compound 2GN] | > 20
COc1ccc(NC(=O)Cn2c(=O)c(CNc3ccccc3)cc3cc4c(cc32)OCCO4)cc1 [Compound 2GO] | > 20
COc1ccc2cc(CNc3ccc(C)cc3)c(=O)n(CC(=O)NCc3ccc(C)cc3)c2c1 [Compound 2GP] | > 20
COc1ccc2cc(CNc3ccccc3)c(=O)n(CC(=O)NCc3ccc(C)cc3)c2c1 [Compound 2GQ] | > 20
COc1ccc(NCc2cc3ccc(OC)cc3n(CC(=O)Nc3ccc(C)cc3Cl)c2=O)cc1 [Compound 2GR] | > 20
CCc1ccc(NCc2cc3ccc(OC)cc3n(CC(=O)Nc3cc(Cl)ccc3C)c2=O)cc1 [Compound 2GS] | > 20
COc1ccc2cc(CNc3ccc(C)cc3)c(=O)n(CC(=O)NCc3ccccc3)c2c1 [Compound 2GT] | > 20
Cc1cccc(C)c1NC(=O)Cn1c(=O)c(CNc2ccccc2)cc2cc3c(cc21)OCCO3 [Compound 2GU] | > 20
COc1cc(NC(=O)Cn2c(=O)c(CNc3ccccc3)cc3ccc(OC)cc32)cc(OC)c1 [Compound 2GV] | > 20
CCOc1ccc(NC(=O)Cn2c(=O)c(CNc3ccccc3)cc3cc4c(cc32)OCCO4)cc1 [Compound 2GW] | > 20
COc1ccc2cc(CNc3ccc(C)cc3)c(=O)n(CC(=O)Nc3ccc(OC)c(Cl)c3)c2c1 [Compound 2GX] | > 20
COc1ccc(NCc2cc3ccc(C)cc3n(CC(=O)Nc3ccc(C)cc3)c2=O)cc1OC [Compound 2GY] | > 20
